Test results reported in US7070978B2, “Method for expressing and purifying proteins using budded baculovirus” (Toudai TLO, Ltd., priority 2001, dated 2006).

Target: S1P (Homo sapiens, UniProt Q14703)
Settings: 10 mM EDTA; SREBP2-BV + S1P-BV, 5 mM calcium, 37° C. for 12 hours, Western blot with anti-serum R004
Experimental: Sf9 cells were infected with recombinant viruses of S1P or SREBP at MOI 5. 72 hours later, the BV fraction was recovered by centrifugation as in Examples 1 and 2, and then suspended in TBS buffer (10 mM Tris, 150 mM NaCl, pH7.5). BV suspended in TBS was subjected to a protein determination with a protein determination kit (Bio-Rad). Reaction solutions of SREBP2-BV as a substrate and S1P-BV as an enzyme were prepared to have respective final concentrations of 10 μg per reaction solution. In addition, calcium ions required for activation of S1P were added to the reaction solution at a concentration, as calcium acetate, which enables to measure activity. Calcium, EDTA (pH7.4) and EGTA (pH7.4) were added to BV solution, and then added with TBS buffer (pH7.4) to a reaction volume of 20 μl, followed by incubation at 37° C. for 12 hours. Following reaction, the solution was subjected to heat treatment with 5×SDS sample buffer at 95° C. for 10 minutes, subjected to 8% SDS-PAGE and Western blot using rabbit anti-serum R004 against the amino terminal of SREBP2.
BV expressing SREBP or S1P was mixed, incubated at 37° C. for 12 hours, and then allowed to react in the presence of 5 mM calcium.

Chain of S1P (Q14703 187-1052): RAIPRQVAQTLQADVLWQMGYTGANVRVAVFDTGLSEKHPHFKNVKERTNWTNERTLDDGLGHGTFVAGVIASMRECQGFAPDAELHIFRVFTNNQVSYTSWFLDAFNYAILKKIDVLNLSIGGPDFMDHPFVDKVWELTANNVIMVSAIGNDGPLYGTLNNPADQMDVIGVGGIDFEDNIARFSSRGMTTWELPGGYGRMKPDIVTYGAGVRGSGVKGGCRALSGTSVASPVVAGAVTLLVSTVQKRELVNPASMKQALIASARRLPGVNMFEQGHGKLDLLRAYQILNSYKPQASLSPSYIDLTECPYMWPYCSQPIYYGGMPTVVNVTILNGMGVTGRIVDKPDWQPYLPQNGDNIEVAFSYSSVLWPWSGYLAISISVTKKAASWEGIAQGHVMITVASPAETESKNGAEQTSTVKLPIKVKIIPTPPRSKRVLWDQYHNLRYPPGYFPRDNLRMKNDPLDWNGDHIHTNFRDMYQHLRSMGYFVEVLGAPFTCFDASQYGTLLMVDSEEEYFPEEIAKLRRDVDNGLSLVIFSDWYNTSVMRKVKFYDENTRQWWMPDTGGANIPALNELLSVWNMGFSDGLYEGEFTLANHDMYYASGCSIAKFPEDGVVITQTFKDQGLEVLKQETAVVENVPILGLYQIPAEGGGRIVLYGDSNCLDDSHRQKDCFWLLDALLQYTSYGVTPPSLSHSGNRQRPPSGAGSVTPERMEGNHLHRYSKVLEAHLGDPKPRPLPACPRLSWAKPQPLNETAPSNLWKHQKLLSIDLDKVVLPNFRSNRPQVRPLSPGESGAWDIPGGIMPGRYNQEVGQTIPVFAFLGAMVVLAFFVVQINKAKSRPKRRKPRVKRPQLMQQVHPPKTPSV

inhibition of degradation (cleavage) of SREBP2 by S1P: completely inhibited
SMILES: O=C(O)CN(CCN(CC(=O)O)CC(=O)O)CC(=O)O [EDTA]
